This note sets out measurements from patent US20260199316A1, “SOLID DISPERSION, PREPARATION METHOD THEREFOR, AND USE THEREOF” (HANGZHOU GLUBIO PHARMACEUTICAL CO., LTD, priority 2022, published 2026).

Structures are written as SMILES.

Series [1] in a line: Approximate solubility test in solvents. It counts as physicochemical. As to conditions: organic solvent or mixture, thermodynamic from solid. Here is the method: About 5 mg of the API control of Formula A was weighed into a 1.5 mL glass vial, and then a certain amount of different solvents (as shown in Table 1) were gradually added until the solid dissolved or the total volume reached 1 mL. The compound of formula A has a high approximate solubility in a mixed solvent of DCM and MeOH.
Different solvents have different solubility for the compound of formula A, considering the stability factor, DCM:EtOH (9:1, v/v) and acetone:water (9:1, v/v) may be used as solvent systems for the preparation of solid dispersions of the compound of formula A.

A short description of series [2]: Chirality stability in solvents (other studies). It counts as physicochemical.

The term solubility denotes how much of the substance goes into solution per volume. As for `O=C1CC[C@H](N2Cc3cc(C(=O)N[C@H](c4ccc(Cl)cn4)C4CCC4)ccc3C2=O)C(=O)N1` [compound of formula A, N—((S)-(5-chloropyridin-2-yl)(cyclobutyl)methyl)-2-((S)-2,6-dioxopiperidin-3-yl)-1-oxoisoindoline-5-carboxamide], the solubility in series [1] (solvent ACN), in series [1] (solvent Acetone), in series [1] (solvent Acetone:ACN (1:1)), in series [1] (solvent Acetone:DCM (1:1)), in series [1] (solvent Acetone:DCM (4:1)) and in series [1] (solvent Acetone:THF (1:1)) was less than 5 mg/mL throughout. For the same molecule, the solubility was less than 5 mg/mL in series [1] (solvent DCM); 25 to 50 mg/mL in series [1] (solvent DCM:MeOH (1:1)); 50 to 100 mg/mL in series [1] (solvent DCM:MeOH (2:1)); 50 to 100 mg/mL in series [1] (solvent DCM:MeOH (4:1)); 50 to 100 mg/mL in series [1] (solvent DCM:MeOH (5:1)); 50 to 100 mg/mL in series [1] (solvent DCM:MeOH (7:1)). In addition, the solubility in series [1] (solvent DCM:MeOH (9:1)) was 25 to 50 mg/mL; in series [1] (solvent DCM:MeOH (99:1)) it was less than 5 mg/mL; in series [1] (solvent DCM:THF (1:1)), less than 5 mg/mL; in series [1] (solvent DCM:THF (4:1)), less than 5 mg/mL; in series [1] (solvent Ethyl acetate) it was less than 5 mg/mL; in series [1] (solvent MeOH) it was less than 5 mg/mL. The solubility in series [1] (solvent THF) was less than 5 mg/mL; in series [1] (v/v), solvent Acetone:Water (9:1)) it was 15 to 50 mg/mL; in series [1] (v/v), solvent DCM:EtOH (9:1)), 5 to 15 mg/mL. In addition, the Chirality stability result in series [2] (in MeOH) is “rapidly racemized”; in series [2] (in acetone and ethanol), “better chirality stability”.
